Experiment [1] in a line: Displacement of [125I]2-iodomelatonin from melatonin receptor in chicken brain membranes after 60 mins by gamma counting. The format is cell membranes, Gallus gallus, Membrane. (Loss of bound radioactivity is the signal in a displacement assay; it reports binding, not function.)
The species named for experiment [2] is Xenopus laevis. Kind of experiment: Antimelanogenic activity in Xenopus laevis tadpoles assessed as melanophore aggregation by microscopy relative to melatonin. The format is functional.
Experiment [3] deals with T1, Melatonin receptor type 1B (Homo sapiens, UniProt P49286).
T1 sequence (P49286 whole entry): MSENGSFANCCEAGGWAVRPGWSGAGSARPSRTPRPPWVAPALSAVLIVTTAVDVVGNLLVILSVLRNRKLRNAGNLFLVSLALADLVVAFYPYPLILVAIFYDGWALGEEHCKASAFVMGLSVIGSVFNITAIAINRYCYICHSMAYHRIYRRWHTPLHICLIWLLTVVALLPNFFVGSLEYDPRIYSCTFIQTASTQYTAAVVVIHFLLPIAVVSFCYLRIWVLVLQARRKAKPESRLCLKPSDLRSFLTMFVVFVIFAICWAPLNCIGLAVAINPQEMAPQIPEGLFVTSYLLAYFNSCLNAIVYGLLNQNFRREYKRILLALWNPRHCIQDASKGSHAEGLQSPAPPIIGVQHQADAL
Kind of experiment: Displacement of [125I]2-iodomelatonin from human recombinant MT2 receptor expressed in HEK293 cells after 2 hrs by gamma counting. It is filed as cell-based.

For experiment [4], the species on record is Xenopus laevis. Put plainly: Ratio of melatonin EC50 to compound EC50 for antimelanogenic activity in Xenopus laevis tadpoles assessed as melanophore aggregation by microscopy. The format is functional.
The species named for experiment [5] is Xenopus laevis. Kind of experiment: Antimelanogenic activity in Xenopus laevis tadpoles assessed as melanophore aggregation by microscopy. It is filed as functional, organism-based.
Experiment [6] has as its target Melatonin receptor type 1A (Homo sapiens, UniProt P48039). Put plainly: Displacement of [125I]2-iodomelatonin from human recombinant MT1 receptor expressed in HEK293 cells after 2 hrs by gamma counting. It is filed as cell-based.

Data on 23 compounds can be found in ChEMBL document CHEMBL2311490 (Bioorg Med Chem Lett, 2013).

As usually defined, the Ki is a dissociation constant, usually derived from enzyme kinetics or from competition with a known ligand. What is called EC50 is the midpoint of the concentration-response curve.

Chain of Melatonin receptor type 1A (P48039 whole entry): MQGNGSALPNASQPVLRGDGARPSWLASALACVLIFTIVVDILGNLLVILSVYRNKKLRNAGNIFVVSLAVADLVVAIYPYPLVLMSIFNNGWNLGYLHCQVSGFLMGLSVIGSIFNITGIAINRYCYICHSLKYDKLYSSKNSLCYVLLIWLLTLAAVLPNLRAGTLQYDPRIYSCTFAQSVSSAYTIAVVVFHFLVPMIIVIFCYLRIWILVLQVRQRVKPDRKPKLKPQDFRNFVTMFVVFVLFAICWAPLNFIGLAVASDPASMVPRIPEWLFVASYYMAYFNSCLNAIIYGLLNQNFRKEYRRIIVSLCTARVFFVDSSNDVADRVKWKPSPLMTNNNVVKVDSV

For the compound `COc1ccc2ccc(OC)c(/C=C/NC(C)=O)c2c1`, the Ki in experiment [1] is 0.012 nM; in experiment [3], 0.07 nM; in experiment [6], 0.03 nM. In the experiment listed under Xenopus laevis [2], the “fold change (FC)” value amounted to 3473. In addition, the “Ratio EC50” value in the experiment listed under Xenopus laevis [4] came to 1000. For the same compound, the EC50 in the experiment filed under Xenopus laevis [5] worked out at 0.00076 nM.

With `COc1ccc(OC)c(/C=C/NC(C)=O)c1`, the inhibition constant Ki in experiment [1] amounted to 283 nM.

In experiment [1], `COc1cccc([C@@H]2C[C@H]2NC(C)=O)c1` (racemic) came in with an inhibition constant Ki of 93 nM.

In the case of `CNC(=O)N/C=C/c1cccc2ccc(OC)cc12`, the affinity in experiment [1], expressed as Ki, was 0.44 nM.

Take `COc1ccc2ccccc2c1[C@@H]1C[C@H]1NC(C)=O` (racemic): the Ki turned out to be 15 nM in experiment [1], 2.6 nM in experiment [3] and 3.7 nM in experiment [6]. For the same compound, the “fold change (FC)” value in the experiment filed under Xenopus laevis [2] came out at 0.025. Besides, in the experiment listed under Xenopus laevis [5], the EC50 was 101 nM.

For `CC(=O)N[C@@H]1C[C@H]1c1cccc2ccccc12` (racemic), the inhibition constant (Ki) is 128 nM in experiment [1], 6.8 nM in experiment [3] and 19 nM in experiment [6]. The EC50 in the experiment filed under Xenopus laevis [5] is more than 10000 nM.

As for `CNC(=O)N/C=C/c1ccccc1OC`, the Ki in experiment [3] and in experiment [6] was more than 1000 nM each time.

With `COc1ccccc1[C@@H]1C[C@H]1NC(C)=O` (racemic), the inhibitory constant (Ki) in experiment [1] was more than 1000 nM.

With `COc1ccc2[nH]cc(CCNC(C)=O)c2c1` [MELATONIN], the affinity in experiment [1] corresponds to a Ki of 0.54 nM.

With `COc1ccc2ccccc2c1/C=C/NC(C)=O`, the Ki in experiment [1] came to 4.6 nM; in experiment [3] it was 0.09 nM; in experiment [6], 0.1 nM. In addition, the “fold change (FC)” value in the experiment filed under Xenopus laevis [2] is 0.028. For the same compound, the 50% effective concentration (EC50) in the experiment listed under Xenopus laevis [5] amounted to 93.5 nM.

For the compound `COc1ccccc1/C=C/NC(C)=O`, the inhibition constant Ki in experiment [1] is more than 1000 nM.

Turning to `COc1ccc2cccc([C@@H]3C[C@H]3NC(C)=O)c2c1` (racemic), the results for the Ki in experiment [1], in experiment [3] and in experiment [6] were 1.6 nM, 0.7 nM and 0.3 nM, respectively. The “fold change (FC)” value in the experiment filed under Xenopus laevis [2] was 0.017. The 50% effective concentration (EC50) in the experiment listed under Xenopus laevis [5] stood at 155 nM.

Take `CC(=O)N/C=C/c1cccc2ccccc12`: the “fold change (FC)” value in the experiment filed under Xenopus laevis [2] is 0.0031. Further, the inhibition constant Ki in experiment [3] was 1.4 nM; in experiment [6] it was 6.7 nM. Also, the concentration giving a half-maximal response (EC50) in the experiment filed under Xenopus laevis [5] stood at 854 nM.

The compound `COc1ccc(OC)c([C@@H]2C[C@@H]2NC(C)=O)c1` (racemic) came in with an inhibition constant Ki in experiment [1] of more than 1000 nM.

As for `CNC(=O)N/C=C/c1c(OC)ccc2ccccc12`, the inhibitory constant (Ki) in experiment [1] was 36.6 nM; in experiment [3] it was 6.5 nM; in experiment [6], 3.1 nM.

As for `COc1ccc2ccc(OC)c([C@@H]3C[C@H]3NC(C)=O)c2c1` (racemic), the Ki was determined as 0.46 nM in experiment [1], 0.2 nM in experiment [3] and 0.06 nM in experiment [6]. In addition, the “fold change (FC)” value in the experiment listed under Xenopus laevis [2] was determined as 264. The half-maximal effective concentration (EC50) in the experiment filed under Xenopus laevis [5] is 0.01 nM.

On to `COc1ccc2cccc(/C=C/NC(C)=O)c2c1`, for which the inhibition constant (Ki) turned out to be 0.16 nM in experiment [1], 0.03 nM in experiment [3] and 0.04 nM in experiment [6]. For the same compound, the “fold change (FC)” value in the experiment listed under Xenopus laevis [2] stood at 6.1. Further, the EC50 in the experiment listed under Xenopus laevis [5] was 0.035 nM.

Take `CNC(=O)N/C=C/c1cc(OC)ccc1OC`: the inhibition constant Ki in experiment [1] is more than 1000 nM.

In turn, `COc1ccc2cccc(CCNC(C)=O)c2c1` [AGOMELATINE] displayed a Ki in experiment [1] of 0.67 nM. In the experiment filed under Xenopus laevis [5], the half-maximal effective concentration (EC50) was 0.35 nM.

On to `CNC(=O)N/C=C/c1cccc2ccccc12`, for which the results for the Ki in experiment [1], in experiment [3] and in experiment [6] were 139 nM, 15 nM and 25 nM, respectively.

For the compound `COc1cccc(/C=C/NC(C)=O)c1`, the affinity in experiment [1], expressed as Ki, was 803 nM.

Take `COc1ccc(OC)c([C@@H]2C[C@H]2NC(C)=O)c1` (racemic): the Ki in experiment [1] was 130 nM; in experiment [3], 86 nM; in experiment [6], 87 nM.

For the compound `CNC(=O)N/C=C/c1c(OC)ccc2ccc(OC)cc12`, the Ki in experiment [1] turned out to be 0.08 nM; in experiment [3], 0.3 nM; in experiment [6], 0.2 nM.
